Assay results published in US20110239322A1, “IN VITRO FLOWERING/SEED SET LEADING TO PARTIAL OR COMPLETE MALE STERILITY IN GRASSES” (THE PENN STATE RESEARCH FOUNDATION, priority 2010, published 2011).

Tested on: shoot explant
Assay: in vitro flowering on flowering medium (MS medium with growth regulators)
Parameters: species or system grasses
Method: In a preferred embodiment, seeds are washed in running tap water with a drop of soap for 5 mins and sterilized with 95% ethyl alcohol for 2 min followed by a 15 minute treatment with 10% bleach and washed three times for 5 min intervals with sterile distilled water. Ten seeds are germinated in each petriplate with MS medium with […]. After germination on MS 2,4-D, for a period of time, such as 3-7 days in the dark at 24±2° C. The flowering medium preferably comprises a substituted phenylurea cytokinin analog, such as TDZ and a cytokinin such as BAP.
Cultures are incubated at 24±2° C. under a 16/8-hour […] photoperiod provided by cool-white fluorescent lights at a quantum flux density of 30 μmol s^−1 m^−2. Following a passage of time, typically within 2 weeks, callus induction occurs, having taken the first internode of the germinated seed (on MS 4 mg/L 2,4-D medium). After about two weeks, the callus is transferred to regeneration medium, to allow for shoot induction (MS, 0.5 mg/L BAP, 0.1 mg/L 2,4-D, 38 mg/L CuSO4). During this time (shoot regeneration), cultures are incubated with necessary dark photoperiodic conditions to promote growth and to mimic natural growing conditions. Additionally, over time it may be necessary to subculture the explants with fresh MS, BAP, 2,4-D, CuSO4. […]

Question: Which “flower production on shoot explant” value (TDZ 2.0 mg/L combined with BAP 1.0 mg/L in flowering medium) does the source give for `O=C(Nc1ccccc1)Nc1cnns1` [TDZ, 1-phenyl-3-(1,2,3-thiadiazol-5-yl)urea] here?
Answer: flowers are produced directly on a shoot explant

Question: And the “flower production on shoots developed from callus” value (TDZ 1.0-2.0 mg/L without BAP)?
Answer: produces flowers on shoots developed from callus
